Earlier results, collected in patent publication US12667577B2, “Pharmaceutical composition, and aprepitant injection and freeze-dried powder injection” (WISDOM PHARMACEUTICAL CO., LTD, priority 2022, dated 2026).
In brackets after ≈: the same amount, converted by molar mass.

Key:
[1] = target: T1, 5-hydroxytryptamine receptor 3 (5-HT3) (Homo sapiens, UniProt P46098)
T1 sequence (P46098 24-478): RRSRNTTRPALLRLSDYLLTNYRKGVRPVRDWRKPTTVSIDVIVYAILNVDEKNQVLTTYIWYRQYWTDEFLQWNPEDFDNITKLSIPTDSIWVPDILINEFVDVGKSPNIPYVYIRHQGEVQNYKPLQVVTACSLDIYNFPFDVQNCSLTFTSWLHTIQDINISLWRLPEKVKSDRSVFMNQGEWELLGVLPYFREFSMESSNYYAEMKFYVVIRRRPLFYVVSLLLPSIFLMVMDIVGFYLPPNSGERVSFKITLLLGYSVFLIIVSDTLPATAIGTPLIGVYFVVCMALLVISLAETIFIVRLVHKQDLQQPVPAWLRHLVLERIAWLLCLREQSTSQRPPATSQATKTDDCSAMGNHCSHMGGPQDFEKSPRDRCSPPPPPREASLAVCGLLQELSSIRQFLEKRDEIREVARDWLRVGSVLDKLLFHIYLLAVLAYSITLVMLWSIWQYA

[2] = clinical data
[3] = target: human substance P neurokinin-1 (NK1) receptor (Homo sapiens, UniProt P25103)
[4] = test system: dopamine receptor
[5] = target: T2, glucocorticoid receptor (Homo sapiens, UniProt P04150)
T2 sequence (P04150 1-777): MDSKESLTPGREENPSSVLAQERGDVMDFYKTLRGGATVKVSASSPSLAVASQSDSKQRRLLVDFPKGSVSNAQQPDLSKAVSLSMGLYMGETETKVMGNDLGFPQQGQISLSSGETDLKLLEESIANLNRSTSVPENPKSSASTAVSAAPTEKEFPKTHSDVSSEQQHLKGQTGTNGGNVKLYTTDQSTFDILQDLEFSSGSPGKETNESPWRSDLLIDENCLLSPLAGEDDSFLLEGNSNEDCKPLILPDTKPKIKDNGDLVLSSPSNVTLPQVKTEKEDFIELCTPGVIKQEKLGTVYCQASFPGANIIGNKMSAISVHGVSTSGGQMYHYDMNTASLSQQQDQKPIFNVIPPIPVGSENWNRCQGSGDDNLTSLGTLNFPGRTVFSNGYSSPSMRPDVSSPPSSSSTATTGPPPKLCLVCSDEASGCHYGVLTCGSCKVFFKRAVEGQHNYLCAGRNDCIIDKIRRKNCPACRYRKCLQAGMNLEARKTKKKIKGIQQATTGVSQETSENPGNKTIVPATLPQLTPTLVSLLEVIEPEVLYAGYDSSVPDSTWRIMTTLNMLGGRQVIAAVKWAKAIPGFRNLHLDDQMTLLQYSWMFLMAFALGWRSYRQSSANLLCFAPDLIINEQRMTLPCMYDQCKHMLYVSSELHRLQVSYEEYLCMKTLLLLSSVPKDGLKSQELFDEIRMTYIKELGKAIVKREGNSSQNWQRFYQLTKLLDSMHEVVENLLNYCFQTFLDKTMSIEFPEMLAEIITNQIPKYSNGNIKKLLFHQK

Chain of human substance P neurokinin-1 (NK1) receptor (P25103 whole entry): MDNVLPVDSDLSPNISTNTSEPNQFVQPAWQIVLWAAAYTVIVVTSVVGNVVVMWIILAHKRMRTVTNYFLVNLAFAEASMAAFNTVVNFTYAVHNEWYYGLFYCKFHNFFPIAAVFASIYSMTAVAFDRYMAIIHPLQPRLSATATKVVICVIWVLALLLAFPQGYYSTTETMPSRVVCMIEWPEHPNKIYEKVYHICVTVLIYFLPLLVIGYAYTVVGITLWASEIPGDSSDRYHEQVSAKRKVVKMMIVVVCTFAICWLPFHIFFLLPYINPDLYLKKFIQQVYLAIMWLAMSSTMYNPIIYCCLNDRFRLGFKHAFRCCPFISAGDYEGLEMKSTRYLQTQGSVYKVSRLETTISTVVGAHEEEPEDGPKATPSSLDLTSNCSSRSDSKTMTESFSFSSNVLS

affinity to 5-HT3 [1]: low or no affinity
affinity to NK1 receptor [3]: high-affinity
affinity to dopamine receptor [4]: low or no affinity
classification in biopharmaceutics (low dissolution and low permeability): Class IV
solubility in ethanol, isopropyl acetate, and acetonitrile (room temperature): slightly soluble
solubility in water (room temperature): 0.55 µg/mL (≈ 1.03 µM)
affinity to glucocorticoid receptor [5]: low or no affinity
SMILES: C[C@@H](O[C@H]1OCCN(Cc2n[nH]c(=O)[nH]2)[C@H]1c1ccc(F)cc1)c1cc(C(F)(F)F)cc(C(F)(F)F)c1 [aprepitant, Aprepitant]
adverse effect rate at injection sites [2]: 0.5%
